In ChEMBL document CHEMBL3232869, “Anti-inflammatory components of Euphorbia humifusa Willd” (Bioorg Med Chem Lett, 2014):
Calls of active or inactive are those of the source. The calls are words filed in the database; no cut-off is given here.

What follows are compounds tested on RAW264.7 (assay: Cytotoxicity against mouse RAW264.7 cells assessed as cell viability at 50 uM after 18 hrs by MTT assay in presence of LPS). Conditions: raw264.7, 18 h.
Assay type: cell-based
`O=c1c(O[C@@H]2O[C@H](CO)[C@@H](O)[C@H](O)[C@H]2O)c(-c2ccc(O)c(O)c2)oc2cc(O)cc(O)c12` [ISOQUERCETIN] was tested, and the Activity was “Non-toxic”. With `COC/C=C/c1cc(OC)c(O[C@@H]2O[C@H](CO)[C@@H](O)[C@H](O)[C@H]2O)c(OC)c1` the Activity was “Non-toxic”. In the case of `O=C(CCc1ccc(O)cc1)c1c(O)cc(O)cc1O[C@@H]1O[C@H](CO)[C@@H](O)[C@H](O)[C@H]1O` [PHLORIZIN], the Activity is reported as “Non-toxic”. `O=c1c(O[C@@H]2O[C@H](CO)[C@@H](O)[C@H](O)[C@H]2O)c(-c2ccc(O)cc2)oc2cc(O)cc(O)c12` [ASTRAGALIN] was tested, and the Activity was “Non-toxic”. In the case of `COC(=O)c1cc(O)c(O)c(O)c1` [GALLIC ACID METHYL ESTER], the Activity is reported as “Non-toxic”. For `C[C@@H]1O[C@@H](OC[C@H]2O[C@@H](Oc3c(-c4ccc(O)c(O)c4)oc4cc(O)cc(O)c4c3=O)[C@H](O)[C@@H](O)[C@@H]2O)[C@H](O)[C@H](O)[C@H]1O` [RUTIN], the Activity was “Non-toxic”.

What follows are compounds tested on RAW264.7 (assay: Antiinflammatory activity in mouse RAW264.7 cells assessed as inhibition of LPS-induced TNF-alpha secretion at 10 uM after 18 hrs by sandwich ELISA). Conditions: not given.
Assay type: functional
In the case of `O=c1c(O[C@@H]2O[C@H](CO)[C@@H](O)[C@H](O)[C@H]2O)c(-c2ccc(O)c(O)c2)oc2cc(O)cc(O)c12` [ISOQUERCETIN], the inhibition is reported as “Active”. For `O=c1c(O[C@@H]2O[C@H](CO)[C@@H](O)[C@H](O)[C@H]2O)c(-c2ccc(O)cc2)oc2cc(O)cc(O)c12` [ASTRAGALIN], the inhibition was “Active”. In the case of `COC(=O)c1cc(O)c(O)c(O)c1` [GALLIC ACID METHYL ESTER], the inhibition is reported as “Active”. With `C[C@@H]1O[C@@H](OC[C@H]2O[C@@H](Oc3c(-c4ccc(O)c(O)c4)oc4cc(O)cc(O)c4c3=O)[C@H](O)[C@@H](O)[C@@H]2O)[C@H](O)[C@H](O)[C@H]1O` [RUTIN] the inhibition was “Active”.

Same assay, conditions: RAW264.7, 18 h
In the case of `COC/C=C/c1cc(OC)c(O[C@@H]2O[C@H](CO)[C@@H](O)[C@H](O)[C@H]2O)c(OC)c1`, the inhibition at 10 µM is reported as 21.5%. In the case of `O=C(CCc1ccc(O)cc1)c1c(O)cc(O)cc1O[C@@H]1O[C@H](CO)[C@@H](O)[C@H](O)[C@H]1O` [PHLORIZIN], the inhibition at 10 µM is reported as 21.5%.

What follows are compounds tested on RAW264.7 (assay: Antiinflammatory activity in mouse RAW264.7 cells assessed as inhibition of LPS-induced nitric oxide production after 18 hrs by griess reaction analysis). Conditions: RAW264.7, 18 h.
Assay type: functional, cell-based
Compound `COC/C=C/c1cc(OC)c(O[C@@H]2O[C@H](CO)[C@@H](O)[C@H](O)[C@H]2O)c(OC)c1` has an IC50 of 17.2 µM. Work on `O=c1c(O[C@@H]2O[C@H](CO)[C@@H](O)[C@H](O)[C@H]2O)c(-c2ccc(O)cc2)oc2cc(O)cc(O)c12` [ASTRAGALIN] yielded an IC50 of 37.1 µM. Compound `COC(=O)c1cc(O)c(O)c(O)c1` [GALLIC ACID METHYL ESTER] has an IC50 of 11.1 µM. For `C[C@@H]1O[C@@H](OC[C@H]2O[C@@H](Oc3c(-c4ccc(O)c(O)c4)oc4cc(O)cc(O)c4c3=O)[C@H](O)[C@@H](O)[C@@H]2O)[C@H](O)[C@H](O)[C@H]1O` [RUTIN], the IC50 was 27.5 µM.

What follows are compounds tested on RAW264.7 (assay: Antiinflammatory activity in mouse RAW264.7 cells assessed as inhibition of LPS-induced nitric oxide production at 10 uM after 18 hrs by griess reaction analysis). Conditions: not given.
Assay type: functional
For `O=c1c(O[C@@H]2O[C@H](CO)[C@@H](O)[C@H](O)[C@H]2O)c(-c2ccc(O)c(O)c2)oc2cc(O)cc(O)c12` [ISOQUERCETIN], the inhibition was “inactive”. For `O=C(CCc1ccc(O)cc1)c1c(O)cc(O)cc1O[C@@H]1O[C@H](CO)[C@@H](O)[C@H](O)[C@H]1O` [PHLORIZIN], the inhibition was “inactive”. With `O=c1c(O[C@@H]2O[C@H](CO)[C@@H](O)[C@H](O)[C@H]2O)c(-c2ccc(O)cc2)oc2cc(O)cc(O)c12` [ASTRAGALIN] the inhibition was “inactive”. In the case of `C[C@@H]1O[C@@H](OC[C@H]2O[C@@H](Oc3c(-c4ccc(O)c(O)c4)oc4cc(O)cc(O)c4c3=O)[C@H](O)[C@@H](O)[C@@H]2O)[C@H](O)[C@H](O)[C@H]1O` [RUTIN], the inhibition is reported as “Active”.

Same assay, conditions: RAW264.7, 18 h
Work on `COC/C=C/c1cc(OC)c(O[C@@H]2O[C@H](CO)[C@@H](O)[C@H](O)[C@H]2O)c(OC)c1` yielded an inhibition at 10 µM of 30%. Compound `COC(=O)c1cc(O)c(O)c(O)c1` [GALLIC ACID METHYL ESTER] has an inhibition at 10 µM of 35.1%.

What follows are compounds tested against T1, Bifunctional epoxide hydrolase 2 (Homo sapiens) (UniProt P34913) (assay: Inhibition of sEH (unknown origin) assessed as substrate PHOME hydrolysis at 25 uM after 1 hr by fluorescence method). Conditions: not given.
T1 sequence (whole entry): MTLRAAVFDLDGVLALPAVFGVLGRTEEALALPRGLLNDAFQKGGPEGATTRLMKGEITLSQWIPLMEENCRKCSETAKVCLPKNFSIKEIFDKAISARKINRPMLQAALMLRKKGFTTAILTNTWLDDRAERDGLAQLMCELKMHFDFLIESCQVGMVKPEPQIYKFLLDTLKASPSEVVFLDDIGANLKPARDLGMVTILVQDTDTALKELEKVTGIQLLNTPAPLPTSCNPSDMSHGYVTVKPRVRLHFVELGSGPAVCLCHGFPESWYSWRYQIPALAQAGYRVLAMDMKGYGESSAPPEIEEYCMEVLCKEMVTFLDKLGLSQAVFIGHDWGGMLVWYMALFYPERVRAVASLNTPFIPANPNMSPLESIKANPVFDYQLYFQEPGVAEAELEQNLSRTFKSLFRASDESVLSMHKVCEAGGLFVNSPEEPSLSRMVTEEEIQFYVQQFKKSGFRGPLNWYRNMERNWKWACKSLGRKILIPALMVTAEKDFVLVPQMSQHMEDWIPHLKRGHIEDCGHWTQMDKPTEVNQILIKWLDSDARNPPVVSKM
With `O=c1c(O[C@@H]2O[C@H](CO)[C@@H](O)[C@H](O)[C@H]2O)c(-c2ccc(O)c(O)c2)oc2cc(O)cc(O)c12` [ISOQUERCETIN] the inhibition was > 40%. For `O=C(CCc1ccc(O)cc1)c1c(O)cc(O)cc1O[C@@H]1O[C@H](CO)[C@@H](O)[C@H](O)[C@H]1O` [PHLORIZIN], the inhibition was > 40%. For `O=c1c(O[C@@H]2O[C@H](CO)[C@@H](O)[C@H](O)[C@H]2O)c(-c2ccc(O)cc2)oc2cc(O)cc(O)c12` [ASTRAGALIN], the inhibition was > 40%. For `C[C@@H]1O[C@@H](OC[C@H]2O[C@@H](Oc3c(-c4ccc(O)c(O)c4)oc4cc(O)cc(O)c4c3=O)[C@H](O)[C@@H](O)[C@@H]2O)[C@H](O)[C@H](O)[C@H]1O` [RUTIN], the inhibition was > 40%.

Each compound was assayed against T2, Bifunctional epoxide hydrolase 2 (Homo sapiens, UniProt P34913) (assay: Inhibition of sEH (unknown origin) assessed as substrate PHOME hydrolysis after 1 hr by fluorescence method). Conditions: not given.
T2 sequence (P34913 whole entry): T1 sequence (whole entry)
With `O=c1c(O[C@@H]2O[C@H](CO)[C@@H](O)[C@H](O)[C@H]2O)c(-c2ccc(O)c(O)c2)oc2cc(O)cc(O)c12` [ISOQUERCETIN] the IC50 was 28.4 µM. `O=C(CCc1ccc(O)cc1)c1c(O)cc(O)cc1O[C@@H]1O[C@H](CO)[C@@H](O)[C@H](O)[C@H]1O` [PHLORIZIN] showed an IC50 of 41.7 µM. `O=c1c(O[C@@H]2O[C@H](CO)[C@@H](O)[C@H](O)[C@H]2O)c(-c2ccc(O)cc2)oc2cc(O)cc(O)c12` [ASTRAGALIN] was tested, and the IC50 was > 50 µM. Compound `C[C@@H]1O[C@@H](OC[C@H]2O[C@@H](Oc3c(-c4ccc(O)c(O)c4)oc4cc(O)cc(O)c4c3=O)[C@H](O)[C@@H](O)[C@@H]2O)[C@H](O)[C@H](O)[C@H]1O` [RUTIN] has an IC50 of 24.3 µM.

The compounds below were run on RAW264.7 (assay: Antiinflammatory activity in mouse RAW264.7 cells assessed as inhibition of LPS-induced TNF-alpha secretion after 18 hrs by sandwich ELISA). Conditions: RAW264.7, 18 h.
Assay type: functional, cell-based
In the case of `O=c1c(O[C@@H]2O[C@H](CO)[C@@H](O)[C@H](O)[C@H]2O)c(-c2ccc(O)c(O)c2)oc2cc(O)cc(O)c12` [ISOQUERCETIN], the IC50 is reported as > 50 µM. With `COC/C=C/c1cc(OC)c(O[C@@H]2O[C@H](CO)[C@@H](O)[C@H](O)[C@H]2O)c(OC)c1` the IC50 was 17.5 µM. In the case of `O=C(CCc1ccc(O)cc1)c1c(O)cc(O)cc1O[C@@H]1O[C@H](CO)[C@@H](O)[C@H](O)[C@H]1O` [PHLORIZIN], the IC50 is reported as 14.4 µM. `O=c1c(O[C@@H]2O[C@H](CO)[C@@H](O)[C@H](O)[C@H]2O)c(-c2ccc(O)cc2)oc2cc(O)cc(O)c12` [ASTRAGALIN] showed an IC50 of 40.6 µM. Compound `COC(=O)c1cc(O)c(O)c(O)c1` [GALLIC ACID METHYL ESTER] has an IC50 of 29.4 µM. `C[C@@H]1O[C@@H](OC[C@H]2O[C@@H](Oc3c(-c4ccc(O)c(O)c4)oc4cc(O)cc(O)c4c3=O)[C@H](O)[C@@H](O)[C@@H]2O)[C@H](O)[C@H](O)[C@H]1O` [RUTIN] showed an IC50 of 44.5 µM.

What follows are compounds tested on RAW264.7 (assay: Antiinflammatory activity in mouse RAW264.7 cells assessed as inhibition of LPS-induced TNF-alpha secretion at 0.4 uM after 18 hrs by sandwich ELISA). Conditions: not given.
Assay type: functional, cell-based
In the case of `O=c1c(O[C@@H]2O[C@H](CO)[C@@H](O)[C@H](O)[C@H]2O)c(-c2ccc(O)c(O)c2)oc2cc(O)cc(O)c12` [ISOQUERCETIN], the inhibition is reported as “inactive”. `COC/C=C/c1cc(OC)c(O[C@@H]2O[C@H](CO)[C@@H](O)[C@H](O)[C@H]2O)c(OC)c1` was tested, and the inhibition was “inactive”. With `O=C(CCc1ccc(O)cc1)c1c(O)cc(O)cc1O[C@@H]1O[C@H](CO)[C@@H](O)[C@H](O)[C@H]1O` [PHLORIZIN] the inhibition was “inactive”. In the case of `O=c1c(O[C@@H]2O[C@H](CO)[C@@H](O)[C@H](O)[C@H]2O)c(-c2ccc(O)cc2)oc2cc(O)cc(O)c12` [ASTRAGALIN], the inhibition is reported as “inactive”. With `COC(=O)c1cc(O)c(O)c(O)c1` [GALLIC ACID METHYL ESTER] the inhibition was “inactive”. In the case of `C[C@@H]1O[C@@H](OC[C@H]2O[C@@H](Oc3c(-c4ccc(O)c(O)c4)oc4cc(O)cc(O)c4c3=O)[C@H](O)[C@@H](O)[C@@H]2O)[C@H](O)[C@H](O)[C@H]1O` [RUTIN], the inhibition is reported as “inactive”.

The compounds below were run on RAW264.7 (assay: Antiinflammatory activity in mouse RAW264.7 cells assessed as inhibition of LPS-induced nitric oxide production at 0.4 uM after 18 hrs by griess reaction analysis). Conditions: not given.
Assay type: functional, cell-based
`O=c1c(O[C@@H]2O[C@H](CO)[C@@H](O)[C@H](O)[C@H]2O)c(-c2ccc(O)c(O)c2)oc2cc(O)cc(O)c12` [ISOQUERCETIN] was tested, and the inhibition was “inactive”. In the case of `COC/C=C/c1cc(OC)c(O[C@@H]2O[C@H](CO)[C@@H](O)[C@H](O)[C@H]2O)c(OC)c1`, the inhibition is reported as “inactive”. For `O=C(CCc1ccc(O)cc1)c1c(O)cc(O)cc1O[C@@H]1O[C@H](CO)[C@@H](O)[C@H](O)[C@H]1O` [PHLORIZIN], the inhibition was “inactive”. `O=c1c(O[C@@H]2O[C@H](CO)[C@@H](O)[C@H](O)[C@H]2O)c(-c2ccc(O)cc2)oc2cc(O)cc(O)c12` [ASTRAGALIN] was tested, and the inhibition was “inactive”. For `COC(=O)c1cc(O)c(O)c(O)c1` [GALLIC ACID METHYL ESTER], the inhibition was “inactive”. With `C[C@@H]1O[C@@H](OC[C@H]2O[C@@H](Oc3c(-c4ccc(O)c(O)c4)oc4cc(O)cc(O)c4c3=O)[C@H](O)[C@@H](O)[C@@H]2O)[C@H](O)[C@H](O)[C@H]1O` [RUTIN] the inhibition was “inactive”.
